Source: patent US7407775B2, “Method for identifying Listeria monocytogenes and culture medium” (Biomerieux S.A., priority 2000, dated 2008)

Key:
Assay type in all cases: cell-based
[1] = tested on: Listeria monocytogenes 092; assay: Experiment 2: octanoate esterase substrates with different Indoxyl-based chromogenic markers; parameters: key to I (intensity of the color): —: the symbol “-” corresponds to the absence of color or intensity; 0 corresponds to no activity; 0.1 corresponds to a trace of color; 0.5 corresponds to very pale coloration; 1 corresponds to clear but low-intensity coloration; 1.5 corresponds to a degree of coloration intermediate between scores 1 and 2; 2 corresponds to clear coloration of moderate intensity; 2.5 corresponds to a degree of coloration intermediate between scores 2 and 3; 3 corresponds to intense coloration; 3.5 corresponds to a degree of coloration intermediate between scores 3 and 4; 4 corresponds to very intense coloration; details: 37° C., substrate 250 mg/l
Experimental: (§1) In Table 1 above, as in the following Tables, C represents the color of the colonies after incubation, I represents the intensity of the color, and the symbol “-” corresponds to the absence of color or intensity; finally, IT defines the incubation time. It should be noted that the intensity of the color is scored on an arbitrary scale but one which is consistent for all the biological specimens and media tested. This scale is valid for this experiment as well as all those that follow. It can be defined in the following way: • 0 corresponds to no activity, • 0.1 corresponds to a trace of color, • 0.5 corresponds to very pale coloration, • 1 corresponds to clear but low-intensity coloration, • 1.5 corresponds to a degree of coloration intermediate between scores 1 and 2, • 2 corresponds to clear coloration of moderate intensity, • 2.5 corresponds to a degree of coloration intermediate between scores 2 and 3, • 3 corresponds to intense coloration, • 3.5 corresponds to a degree of coloration intermediate between scores 3 and 4, • 4 corresponds to very intense coloration.
(§2) A stock solution of each substrate at a concentration of 40 g/l was made up in a mixture of 40% Dimethylsulfoxide and 60% Tween 20. An appropriate volume was added to four Columbia-type media while cooling to give a final substrate concentration of 250 mg/l. These dishes were divided into three areas and then each area was inoculated with a suspension (density=0.5 McFarland) of microorganisms taken from either the Applicant's own collection or the ATCC. The dishes were incubated for 48 hours at 37° C. The colonies which grew were examined by eye after 24 and 48 hours of incubation. Both the color and the intensity of the color of the colonies were recorded.

[2] = tested on: Listeria monocytogenes ATCC 19115; assay: as above; parameters: key to I (intensity of the color): —: the symbol “-” corresponds to the absence of color or intensity; 0 corresponds to no activity; 0.1 corresponds to a trace of color; 0.5 corresponds to very pale coloration; 1 corresponds to clear but low-intensity coloration; 1.5 corresponds to a degree of coloration intermediate between scores 1 and 2; 2 corresponds to clear coloration of moderate intensity; 2.5 corresponds to a degree of coloration intermediate between scores 2 and 3; 3 corresponds to intense coloration; 3.5 corresponds to a degree of coloration intermediate between scores 3 and 4; 4 corresponds to very intense coloration; details: 37° C., substrate 250 mg/l
Experimental: as §1, §2

[3] = tested on: Listeria monocytogenes ATCC 19117; assay: as above; parameters: key to I (intensity of the color): —: the symbol “-” corresponds to the absence of color or intensity; 0 corresponds to no activity; 0.1 corresponds to a trace of color; 0.5 corresponds to very pale coloration; 1 corresponds to clear but low-intensity coloration; 1.5 corresponds to a degree of coloration intermediate between scores 1 and 2; 2 corresponds to clear coloration of moderate intensity; 2.5 corresponds to a degree of coloration intermediate between scores 2 and 3; 3 corresponds to intense coloration; 3.5 corresponds to a degree of coloration intermediate between scores 3 and 4; 4 corresponds to very intense coloration; details: 37° C., substrate 250 mg/l
Experimental: as §1, §2

[4] = tested on: Listeria monocytogenes 092; assay: Experiment 3: detecting an esterase activity in liquid medium (API-type strips); parameters: key: —: the symbol “-” corresponds to the absence of color or intensity; 0 corresponds to no activity; 0.1 corresponds to a trace of color; 0.5 corresponds to very pale coloration; 1 corresponds to clear but low-intensity coloration; 1.5 corresponds to a degree of coloration intermediate between scores 1 and 2; 2 corresponds to clear coloration of moderate intensity; 2.5 corresponds to a degree of coloration intermediate between scores 2 and 3; 3 corresponds to intense coloration; 3.5 corresponds to a degree of coloration intermediate between scores 3 and 4; 4 corresponds to very intense coloration; details: 37° C.
Experimental: as §1
These substrates were lyophilized in the wells of API-type strips (Registered Trademark). Before use, the substrates contained in the wells were resuspended in an agar-free Columbia-type inoculation medium. These wells were then inoculated with a suspension (density=2 McFarland) of microorganisms taken from either the Applicant's own collection or the ATCC. The strips were incubated for 8 hours at 37° C. The colonies which grew were examined by eye after 4, 6 and 8 hours of incubation.
The intensity of the color of the colonies was recorded.

[5] = tested on: Listeria innocua ATCC 33090; assay: Experiment 1: esterase substrates, same chromogenic marker, fatty acids of different chain lengths; parameters: key: —: the symbol “-” corresponds to the absence of color or intensity; 0 corresponds to no activity; 0.1 corresponds to a trace of color; 0.5 corresponds to very pale coloration; 1 corresponds to clear but low-intensity coloration; 1.5 corresponds to a degree of coloration intermediate between scores 1 and 2; 2 corresponds to clear coloration of moderate intensity; 2.5 corresponds to a degree of coloration intermediate between scores 2 and 3; 3 corresponds to intense coloration; 3.5 corresponds to a degree of coloration intermediate between scores 3 and 4; 4 corresponds to very intense coloration; details: 37° C., substrate 250 mg/l
Experimental: as §2, with “Polyoxyethylenesorbitan Monolaurate (Tween 20).” for “Tween 20.”, “three” for “four”
as §1

SMILES	C (color of the colonies) ([1]; IT 24 h)	C (color of the colonies) ([1]; IT 48 h)	C (color of the colonies) ([2]; IT 24 h)	C (color of the colonies) ([2]; IT 48 h)	C (color of the colonies) ([3]; IT 24 h)	C (color of the colonies) ([3]; IT 48 h)	C (color of the colonies) ([5]; IT 48 h)	I (intensity of the color) ([1]; IT 24 h)	I (intensity of the color) ([1]; IT 48 h)	I (intensity of the color) ([2]; IT 24 h)	I (intensity of the color) ([2]; IT 48 h)	I (intensity of the color) ([3]; IT 24 h)	I (intensity of the color) ([3]; IT 48 h)	I (intensity of the color) ([4]; IT 4 h)	I (intensity of the color) ([4]; IT 6 h)	I (intensity of the color) ([4]; IT 8 h)	C (color of the colonies) ([5]; IT 24 h)	I (intensity of the color) ([5]; IT 24 h)	I (intensity of the color) ([5]; IT 48 h)
CCCCCCCC(=O)Oc1c[nH]c2ccc(Br)cc12 [Blue-C8, 5-Bromo-3-indolyl octanoate]	gray	gray	gray	gray	gray	gray	gray	1.5	2.5	1	2	1	2				gray	0.3	0.5
CCCCCCCC(=O)Oc1c[nH]c2ccc(Br)c(Cl)c12 [X-C8, 5-Bromo-4-chloro-3-indolyl octanoate]	turquoise	turquoise	turquoise	turquoise	turquoise	turquoise		3	3.5	2.5	3	2	3	—	1	1.5			
CCCCCCCCC(=O)Oc1c[nH]c2ccc(Br)cc12 [Blue-C9, 5-Bromo-3-indolyl nonanoate]							gray										—	—	0.3
CCCCCCCCCC(=O)Oc1c[nH]c2ccc(Br)cc12 [Blue-C10, 5-Bromo-3-indolyl decanoate]							gray										—	—	0.3

More lines, main results first:

C (color of the colonies) ([1]; IT 24 h)	C (color of the colonies) ([1]; IT 48 h)	C (color of the colonies) ([2]; IT 24 h)	C (color of the colonies) ([2]; IT 48 h)	C (color of the colonies) ([3]; IT 24 h)	C (color of the colonies) ([3]; IT 48 h)	C (color of the colonies) ([5]; IT 48 h)	SMILES	I (intensity of the color) ([1]; IT 24 h)	I (intensity of the color) ([1]; IT 48 h)	I (intensity of the color) ([2]; IT 24 h)	I (intensity of the color) ([2]; IT 48 h)	I (intensity of the color) ([3]; IT 24 h)	I (intensity of the color) ([3]; IT 48 h)	I (intensity of the color) ([4]; IT 4 h)	I (intensity of the color) ([4]; IT 6 h)	I (intensity of the color) ([4]; IT 8 h)	C (color of the colonies) ([5]; IT 24 h)	I (intensity of the color) ([5]; IT 24 h)	I (intensity of the color) ([5]; IT 48 h)
purple	purple	purple	purple	purple	purple		CCCCCCCC(=O)Oc1c[nH]c2cc(Cl)c(Br)cc12 [Magenta-C8, 5-Bromo-6-chloro-3-indolyl octanoate]	3	3	2	3	1.5	3.5	—	—	0.5			
pink	pink	pink	pink	pink	pink		CCCCCCCC(=O)Oc1c[nH]c2cc(Cl)ccc12 [Pink-C8, 6-Chloro-3-indolyl octanoate]	1.5	2	0.5	1	0.5	1	—	—	—			
